From the NIST ThermoML archive (doi:10.1016/j.jct.2017.02.022)

Columns and labels:
[1] = xn = mol fraction of the nth substance listed; conditions: 101.3 kPa, Liquid; for speed of sound: Frequency=3 MHz, Sing-around technique in a fixed-path interferometer; for mass density: Vibrating tube method
[2] = refractive index (Na D-line) (dimensionless); xn = mol fraction of the nth substance listed; conditions: 101.3 kPa, Liquid, Standard Abbe refractometry

COS(=O)(=O)[O-].Cn1cc[n+](C)c1 [1,3-dimethylimidazolium methylsulfate] + CCCCCO
Conditions | mass density, [1] [kg/m3] | refractive index, [2] | speed of sound, [1] [m/s]
298 K, x1 = 0.1 | 884 | 1.417 | 1311
298 K, x1 = 0.35 | 1041 | 1.439 | 1448
298 K, x1 = 0.54 | 1140 | 1.454 | 1552
298 K, x1 = 0.661 | 1195 | 1.463 | 1618
298 K, x1 = 0.79 | 1250 | 1.471 | 1672
298 K, x1 = 0.931 | 1304 | 1.479 | 1751
298 K, x1 = 1 | 1329 | 1.483 | 1811
303 K, x1 = 0.1 | 879 | 1.416 | 1295
303 K, x1 = 0.35 | 1035 | 1.438 | 1432
303 K, x1 = 0.54 | 1134 | 1.452 | 1536
303 K, x1 = 0.661 | 1189 | 1.461 | 1603
303 K, x1 = 0.79 | 1243 | 1.469 | 1659
303 K, x1 = 0.931 | 1298 | 1.477 | 1738
303 K, x1 = 1 | 1322 | 1.481 | 1799
308 K, x1 = 0.1 | 875 | 1.414 | 1278
308 K, x1 = 0.35 | 1031 | 1.436 | 1417
308 K, x1 = 0.54 | 1129 | 1.451 | 1521
308 K, x1 = 0.661 | 1185 | 1.459 | 1588
308 K, x1 = 0.79 | 1239 | 1.467 | 1645
308 K, x1 = 0.931 | 1294 | 1.476 | 1725
308 K, x1 = 1 | 1319 | 1.48 | 1787
313 K, x1 = 0.1 | 871 | 1.412 | 1261
313 K, x1 = 0.35 | 1026 | 1.433 | 1401
313 K, x1 = 0.54 | 1125 | 1.448 | 1506
313 K, x1 = 0.661 | 1181 | 1.456 | 1574
313 K, x1 = 0.79 | 1235 | 1.465 | 1631
313 K, x1 = 0.931 | 1290 | 1.474 | 1713
313 K, x1 = 1 | 1315 | 1.479 | 1775

COS(=O)(=O)[O-].Cn1cc[n+](C)c1 [1,3-dimethylimidazolium methylsulfate] + CCCCO
Conditions | mass density, [1] [kg/m3] | refractive index, [2] | speed of sound, [1] [m/s]
298 K, x1 = 0.063 | 861 | 1.405 | 1263
298 K, x1 = 0.221 | 982 | 1.421 | 1357
298 K, x1 = 0.432 | 1108 | 1.443 | 1500
298 K, x1 = 0.64 | 1205 | 1.46 | 1617
298 K, x1 = 0.781 | 1258 | 1.47 | 1688
298 K, x1 = 0.927 | 1307 | 1.479 | 1761
298 K, x1 = 1 | 1329 | 1.483 | 1811
303 K, x1 = 0.063 | 857 | 1.401 | 1246
303 K, x1 = 0.221 | 977 | 1.418 | 1341
303 K, x1 = 0.432 | 1102 | 1.439 | 1485
303 K, x1 = 0.64 | 1198 | 1.457 | 1602
303 K, x1 = 0.781 | 1252 | 1.468 | 1675
303 K, x1 = 0.927 | 1300 | 1.477 | 1748
303 K, x1 = 1 | 1322 | 1.481 | 1799
308 K, x1 = 0.063 | 852 | 1.398 | 1229
308 K, x1 = 0.221 | 972 | 1.414 | 1325
308 K, x1 = 0.432 | 1097 | 1.435 | 1469
308 K, x1 = 0.64 | 1193 | 1.454 | 1587
308 K, x1 = 0.781 | 1248 | 1.465 | 1661
308 K, x1 = 0.927 | 1297 | 1.475 | 1735
308 K, x1 = 1 | 1319 | 1.48 | 1787
313 K, x1 = 0.063 | 848 | 1.395 | 1213
313 K, x1 = 0.221 | 967 | 1.41 | 1309
313 K, x1 = 0.432 | 1092 | 1.431 | 1454
313 K, x1 = 0.64 | 1189 | 1.45 | 1572
313 K, x1 = 0.781 | 1243 | 1.461 | 1647
313 K, x1 = 0.927 | 1293 | 1.472 | 1722
313 K, x1 = 1 | 1315 | 1.479 | 1775

COS(=O)(=O)[O-].Cn1cc[n+](C)c1 [1,3-dimethylimidazolium methylsulfate] + CCCO
Conditions | mass density, [1] [kg/m3] | refractive index, [2] | speed of sound, [1] [m/s]
298 K, x1 = 0.039 | 843 | 1.389 | 1225
298 K, x1 = 0.208 | 995 | 1.413 | 1348
298 K, x1 = 0.382 | 1107 | 1.434 | 1481
298 K, x1 = 0.561 | 1193 | 1.452 | 1605
298 K, x1 = 0.702 | 1246 | 1.464 | 1684
298 K, x1 = 0.912 | 1307 | 1.477 | 1773
298 K, x1 = 1 | 1329 | 1.483 | 1811
303 K, x1 = 0.039 | 839 | 1.387 | 1208
303 K, x1 = 0.208 | 989 | 1.41 | 1332
303 K, x1 = 0.382 | 1100 | 1.432 | 1465
303 K, x1 = 0.561 | 1186 | 1.45 | 1590
303 K, x1 = 0.702 | 1239 | 1.461 | 1670
303 K, x1 = 0.912 | 1301 | 1.476 | 1760
303 K, x1 = 1 | 1322 | 1.481 | 1799
308 K, x1 = 0.039 | 834 | 1.385 | 1191
308 K, x1 = 0.208 | 984 | 1.408 | 1316
308 K, x1 = 0.382 | 1095 | 1.429 | 1450
308 K, x1 = 0.561 | 1181 | 1.447 | 1575
308 K, x1 = 0.702 | 1234 | 1.459 | 1656
308 K, x1 = 0.912 | 1297 | 1.474 | 1747
308 K, x1 = 1 | 1319 | 1.48 | 1787
313 K, x1 = 0.039 | 830 | 1.382 | 1175
313 K, x1 = 0.208 | 979 | 1.404 | 1300
313 K, x1 = 0.382 | 1090 | 1.426 | 1434
313 K, x1 = 0.561 | 1176 | 1.444 | 1561
313 K, x1 = 0.702 | 1229 | 1.456 | 1642
313 K, x1 = 0.912 | 1293 | 1.472 | 1734
313 K, x1 = 1 | 1315 | 1.479 | 1775

CCn1cc[n+](C)c1.COS(=O)(=O)[O-] [1-ethyl-3-methylimidazolium methylsulfate] + CCCCCO
Conditions | mass density, [1] [kg/m3] | refractive index, [2] | speed of sound, [1] [m/s]
298 K, x1 = 0.05 | 849 | 1.413 | 1291
298 K, x1 = 0.284 | 999 | 1.435 | 1425
298 K, x1 = 0.459 | 1089 | 1.448 | 1527
298 K, x1 = 0.613 | 1157 | 1.458 | 1603
298 K, x1 = 0.768 | 1216 | 1.468 | 1662
298 K, x1 = 0.922 | 1268 | 1.476 | 1721
298 K, x1 = 1 | 1292 | 1.48 | 1762
303 K, x1 = 0.05 | 845 | 1.412 | 1274
303 K, x1 = 0.284 | 994 | 1.434 | 1409
303 K, x1 = 0.459 | 1085 | 1.447 | 1511
303 K, x1 = 0.613 | 1153 | 1.457 | 1588
303 K, x1 = 0.768 | 1212 | 1.466 | 1648
303 K, x1 = 0.922 | 1265 | 1.475 | 1708
303 K, x1 = 1 | 1289 | 1.479 | 1750
308 K, x1 = 0.05 | 841 | 1.411 | 1258
308 K, x1 = 0.284 | 990 | 1.432 | 1393
308 K, x1 = 0.459 | 1081 | 1.445 | 1496
308 K, x1 = 0.613 | 1149 | 1.455 | 1573
308 K, x1 = 0.768 | 1208 | 1.465 | 1634
308 K, x1 = 0.922 | 1261 | 1.473 | 1695
308 K, x1 = 1 | 1285 | 1.478 | 1739
313 K, x1 = 0.05 | 837 | 1.409 | 1241
313 K, x1 = 0.284 | 986 | 1.43 | 1377
313 K, x1 = 0.459 | 1077 | 1.443 | 1480
313 K, x1 = 0.613 | 1145 | 1.453 | 1559
313 K, x1 = 0.768 | 1205 | 1.463 | 1620
313 K, x1 = 0.922 | 1258 | 1.472 | 1682
313 K, x1 = 1 | 1282 | 1.476 | 1727

CCn1cc[n+](C)c1.COS(=O)(=O)[O-] [1-ethyl-3-methylimidazolium methylsulfate] + CCCCO
Conditions | mass density, [1] [kg/m3] | refractive index, [2] | speed of sound, [1] [m/s]
298 K, x1 = 0.041 | 843 | 1.403 | 1260
298 K, x1 = 0.219 | 976 | 1.424 | 1372
298 K, x1 = 0.417 | 1087 | 1.442 | 1504
298 K, x1 = 0.571 | 1156 | 1.454 | 1593
298 K, x1 = 0.731 | 1214 | 1.464 | 1662
298 K, x1 = 0.909 | 1268 | 1.475 | 1729
298 K, x1 = 1 | 1292 | 1.48 | 1762
303 K, x1 = 0.041 | 839 | 1.401 | 1243
303 K, x1 = 0.219 | 972 | 1.422 | 1356
303 K, x1 = 0.417 | 1083 | 1.44 | 1488
303 K, x1 = 0.571 | 1152 | 1.452 | 1578
303 K, x1 = 0.731 | 1210 | 1.462 | 1648
303 K, x1 = 0.909 | 1264 | 1.473 | 1716
303 K, x1 = 1 | 1289 | 1.479 | 1750
308 K, x1 = 0.041 | 835 | 1.398 | 1226
308 K, x1 = 0.219 | 967 | 1.419 | 1340
308 K, x1 = 0.417 | 1078 | 1.437 | 1473
308 K, x1 = 0.571 | 1147 | 1.449 | 1563
308 K, x1 = 0.731 | 1206 | 1.461 | 1634
308 K, x1 = 0.909 | 1261 | 1.472 | 1702
308 K, x1 = 1 | 1285 | 1.478 | 1739
313 K, x1 = 0.041 | 830 | 1.395 | 1209
313 K, x1 = 0.219 | 963 | 1.416 | 1324
313 K, x1 = 0.417 | 1074 | 1.435 | 1457
313 K, x1 = 0.571 | 1143 | 1.447 | 1548
313 K, x1 = 0.731 | 1202 | 1.459 | 1620
313 K, x1 = 0.909 | 1257 | 1.47 | 1689
313 K, x1 = 1 | 1282 | 1.476 | 1727
